Earlier results as cited in publication PMC9329312, “Decoding kinase-adverse event associations for small molecule kinase inhibitors” (Nature Communications, 2022).

Details: ref FAERS

CCOc1cc2ncc(C#N)c(Nc3ccc(OCc4ccccn4)c(Cl)c3)c2cc1NC(=O)/C=C/CN(C)C [neratinib]
0.225%: Ageusia, % of Cases | Aphonia, % of Cases | Ascites, % of Cases | Balance disorder, % of Cases | Bladder spasm, % of Cases | Blood glucose decreased, % of Cases | Blood iron decreased, % of Cases | Blood pressure decreased, % of Cases | Cardiac failure congestive, % of Cases | Clostridium difficile infection, % of Cases | Contusion, % of Cases | Device related infection, % of Cases | Diarrhoea haemorrhagic, % of Cases | Diverticulitis, % of Cases
61.8%: Diarrhoea, % of Cases
11.9%: Decreased appetite, % of Cases
0.5%: Alopecia, % of Cases | Chills, % of Cases
4.1%: Asthenia, % of Cases
0.45%: Breast cancer stage IV, % of Cases | Drug ineffective, % of Cases
1.0%: Drug intolerance, % of Cases
1.4%: Cough, % of Cases
9.6%: Death, % of Cases
0.8%: Blood creatinine increased, % of Cases | Confusional state, % of Cases
0.3%: Aspartate aminotransferase increased, % of Cases | Blood magnesium decreased, % of Cases | Blood urea increased, % of Cases | Brain neoplasm, % of Cases | Burning sensation, % of Cases | Cerebrovascular accident, % of Cases | Colitis, % of Cases | Depressed mood, % of Cases
0.375%: Arthritis, % of Cases | Breast reconstruction, % of Cases | Cystitis, % of Cases
0.75%: Bone pain, % of Cases | Depression, % of Cases
1.5%: Acne, % of Cases
2.4%: Arthralgia, % of Cases
4.8%: Abdominal discomfort, % of Cases
6.6%: Dehydration, % of Cases
15.5%: Constipation, % of Cases
6.0%: Abdominal pain upper, % of Cases
4.6%: Dizziness, % of Cases
0.6%: Acute kidney injury, % of Cases | Alanine aminotransferase increased, % of Cases | Anaemia, % of Cases | Blood pressure increased, % of Cases | Chest pain, % of Cases | Dermatitis acneiform, % of Cases
6.2%: Abdominal pain, % of Cases
2.3%: Breast cancer metastatic, % of Cases
2.6%: Adverse drug reaction, % of Cases
0.15%: Abdominal tenderness, % of Cases | Abnormal faeces, % of Cases | Abscess, % of Cases | Accidental overdose, % of Cases | Amnesia, % of Cases | Appendicitis, % of Cases | Appetite disorder, % of Cases | Asthma, % of Cases | Blister, % of Cases | Blood alkaline phosphatase increased, % of Cases | Blood bilirubin increased, % of Cases | Blood electrolytes decreased, % of Cases | Blood sodium decreased, % of Cases | Blood urine present, % of Cases | Brain cancer metastatic, % of Cases | Brain operation, % of Cases | Breast cancer, % of Cases | Breast cellulitis, % of Cases | Breast pain, % of Cases | COVID-19, % of Cases | Candida infection, % of Cases | Cellulitis, % of Cases | Chest discomfort, % of Cases | Cholelithiasis, % of Cases | Chromaturia, % of Cases | Cognitive disorder, % of Cases | Colon cancer, % of Cases
1.7%: Blood potassium decreased, % of Cases | Disease progression, % of Cases
0.9%: Anxiety, % of Cases | Back pain, % of Cases
3.4%: Abdominal distension, % of Cases
0.075%: Abdominal neoplasm, % of Cases | Abdominal pain lower, % of Cases | Acute respiratory failure, % of Cases | Adrenal mass, % of Cases | Adrenocortical insufficiency acute, % of Cases | Adverse event, % of Cases | Amenorrhoea, % of Cases | Anal cancer metastatic, % of Cases | Anal fissure, % of Cases | Anal incontinence, % of Cases | Anal inflammation, % of Cases | Anger, % of Cases | Animal bite, % of Cases | Animal scratch, % of Cases | Aphasia, % of Cases | Aphthous ulcer, % of Cases | Aplastic anaemia, % of Cases | Appendicitis perforated, % of Cases | Aspergillus infection, % of Cases | Asthenopia, % of Cases | Astigmatism, % of Cases | Atrial fibrillation, % of Cases | Bacterial infection, % of Cases | Biliary cirrhosis, % of Cases | Bladder dilatation, % of Cases | Blood calcium decreased, % of Cases | Blood creatinine abnormal, % of Cases | Blood glucose fluctuation, % of Cases | Blood glucose increased, % of Cases | Blood pressure abnormal, % of Cases | Blood urea nitrogen/creatinine ratio increased, % of Cases | Bone cancer, % of Cases | Bowel movement irregularity, % of Cases | Brain natriuretic peptide increased, % of Cases | Brain neoplasm malignant, % of Cases | Brain oedema, % of Cases | Breast calcifications, % of Cases | Breast disorder, % of Cases | Breast haemorrhage, % of Cases | Breast swelling, % of Cases | Brief resolved unexplained event, % of Cases | Bronchitis, % of Cases | Bundle branch block left, % of Cases | Cachexia, % of Cases | Cancer pain, % of Cases | Carbohydrate antigen 15-3 increased, % of Cases | Cardiac disorder, % of Cases | Cardiac operation, % of Cases | Cardio-respiratory arrest, % of Cases | Catatonia, % of Cases | Cellulitis staphylococcal, % of Cases | Central nervous system haemorrhage, % of Cases | Central venous catheter removal, % of Cases | Central venous catheterisation, % of Cases | Cerebral cyst, % of Cases | Chapped lips, % of Cases | Chest wall tumour, % of Cases | Cholangiocarcinoma, % of Cases | Cholecystectomy, % of Cases | Cholecystitis, % of Cases | Chronic fatigue syndrome, % of Cases | Chronic hepatic failure, % of Cases | Clostridium difficile colitis, % of Cases | Coagulopathy, % of Cases | Colectomy, % of Cases | Colitis ulcerative, % of Cases | Coma, % of Cases | Completed suicide, % of Cases | Condition aggravated, % of Cases | Conjunctivitis, % of Cases | Critical illness, % of Cases | Cyst, % of Cases | Deafness bilateral, % of Cases | Deep vein thrombosis, % of Cases | Dementia, % of Cases | Dental operation, % of Cases | Dermatitis contact, % of Cases | Diabetic ketoacidosis, % of Cases | Diplegia, % of Cases | Diplopia, % of Cases | Discomfort, % of Cases | Disorientation, % of Cases | Disturbance in attention, % of Cases | Drug eruption, % of Cases | Drug hypersensitivity, % of Cases | Drug interaction, % of Cases
